From patent publication US20130090516A1, “Local Anesthesia By Magnet-Directed Concentration of Nanoparticle Conjugated Anesthetic” (CARNEGIE MELLON UNIVERSITY, priority 2011, published 2013)

How the values were obtained:
Sprague Dawley rats [1] = assay: Hargreaves test of thermal nociception (paw withdrawal latency); assay type: in vivo, rat; conditions: subcutaneous 0.8 ml of 0.1% or 0.2%, six animals each
Text: Sprague Dawley rats (300-350 grams) were used to assess the efficacy of formulations of ropivacaine generated as described above. The Hargreaves test of thermal nociception evaluates the level of sensory anesthesia of the plantar surface of the paw and was used to assess pain sensation here. Animals were placed in individual Plexiglas testing chambers in a modified Hargreaves box. Hargreaves et al., 1988, which is hereby incorporated by reference. A very low power idle intensity beam was used to initially target the plantar surface of the hind paw. Once appropriately placed, the beam was switched to a higher power active intensity (approximately 50% of maximum intensity). This causes radiant heat stimulation of the plantar hind paw and allows for a measure of the latency of the rat's paw withdrawal threshold.
Before each experiment, baseline nociception testing was performed on the animals. In all experiments, the left paws were used as controls and the right paws were utilized in the treatment condition. Rats were anesthetized using the general anesthetic isoflurane, awaked after a designated time, and the paws were tested after their returned to baseline wakefulness (approximately 5-10 minutes). Each hind paw was tested at 5 minute intervals for 40 minutes and at 10-minute intervals for 120 minutes. […]

[2] = Plasma concentration / pharmacokinetics of ropivacaine after intravenous administration; assay type: in vivo, rat
Method: For the assessment of plasma concentration of ropivacaine, the following groups were studied:
(§1) Each group included 3 animals. A volume of 0.3 ml of blood was drawn before injection, and at 15, 30, 60, 120, 180, 240 and 300 minutes after the injections. […] The animals in groups Bplasma and Cplasma had 14 mg of ropivacaine complexed with MNPs. In group Cplasma, the magnet assembly used in Example 2 was placed around the right ankle before injection and removed after 30 minutes.
After intravenous administration, the plasma concentration of ropivacaine declined in an exponential manner as expected, in all three groups. Group Aplasma cannot be directly compared to the other two groups because the close in group Aplasma was 14 times lower. Between groups Bplasma and Cplasma, there were no differences in any parameter. Data are presented as mean (SD). Lambda-Z is defined as terminal elimination rate constant. AUC is the area under the concentration curve. Vd is the volume of distribution. Cl is clearance rate. N/A means not applicable. Listed probability values are established through t-tests between groups B and C.

[3] = Ropivacaine concentration in ankle tissue and plasma at 30 minutes (HPLC-MS-MS); conditions: Group A, ropivacaine only, 0.5 h
Method: (§2) The experiments were done after placing the animals under isoflurane anesthesia and spontaneous ventilation. A volume of 2 milliliters of the injectate was given at 5-15° C. intravenously via a tail vein cannula over four to five minutes. A jugular catheter was inserted where necessary for blood withdrawals.
(§3) A separate set of two animals for each condition were used to assess ropivacaine concentration in the ankle.
(§4) In all groups, 0.3 ml of blood was withdrawn at baseline, at 15 minutes, and at 30 minutes for plasma ropivacaine determination. At 30 minutes, skin and subcutaneous tissue all around the right ankle were isolated for ropivacaine analysis. Analysis was performed by HPLC-MS-MS.
Again, data are presented as mean (SD)

[4] = rat, in vivo
Method: as §2, §3, §4
Again, data are presented as mean (SD)

Sprague Dawley rats [5] = assay: Acute toxicity after intravenous injection (cardiopulmonary arrest as evidence of toxicity); assay type: in vivo, rat; conditions: 1.2 mg intravenous
Method: Conjugated nanoparticles so prepared may be injected intravenously into a subject. […] The efficacy as a local anesthetic when concentrated with an external magnet was assessed in the following experiment.
Specifically, acute toxicity studies of unconjugated magnetic nanoparticles, assay of plasma concentration of ropivacaine, and measurement of tissue concentration of ropivacaine at the ankle were performed.
Acute toxicity studies of unconjugated magnetic nanoparticles were conducted in 10 animals. Cardiopulmonary arrest was taken as evidence of toxicity.
as §1

Compound: CCCN1CCCC[C@H]1C(=O)Nc1c(C)cccc1C [Plain ropiv, ropivacaine]
- traditional nerve block (ankle block) (Sprague Dawley rats [1]): achieved
- Cmax ([2]; Group A, 1 mg ropivacaine iv, mean): 863.3 ng/mL
- Cmax (dose normalized) ([2]; rat, in vivo, iv): 863.3 ng/mL/mg
- AUC (0-inf) ([2]; rat, in vivo, iv, 1 mg): 875 ng·h/mL
- Cl (clearance rate) ([2]; rat, in vivo, iv, 1 mg): 1462 mL/h
- Half life ([2]; rat, in vivo, iv, 1 mg): 97.8 min
- Tmax ([2]; rat, in vivo, iv, 1 mg): 15 min
- Vd (volume of distribution) ([2]; rat, in vivo, iv, 1 mg): 3180 mL
- Ratio of tissue to plasma concentration [3]: 3.12
- factor by which absolute tissue drug concentration was higher than groups B and C [4]: 7-10
- lethality (Sprague Dawley rats [5]): lethal
